Measured values from paper PMC4081830, “Structure of the Trehalose-6-phosphate Phosphatase from Brugia malayi Reveals Key Design Principles for Anthelmintic Drugs” (PLoS Pathogens, 2014).

Assays:
[1] = biological target: T1, B. malayi T6PP (trehalose-6-phosphate phosphatase), wild type (Brugia malayi, UniProt A8NS89); test: inhibition kinetics; type: biochemical
T1 construct: gene Bm1_08695; full-length (492 residues) from cDNA library, modified pET-15b(TEV), E. coli T7 Express; N-terminal His-tag removed by TEV protease
T1 sequence (A8NS89 1-492): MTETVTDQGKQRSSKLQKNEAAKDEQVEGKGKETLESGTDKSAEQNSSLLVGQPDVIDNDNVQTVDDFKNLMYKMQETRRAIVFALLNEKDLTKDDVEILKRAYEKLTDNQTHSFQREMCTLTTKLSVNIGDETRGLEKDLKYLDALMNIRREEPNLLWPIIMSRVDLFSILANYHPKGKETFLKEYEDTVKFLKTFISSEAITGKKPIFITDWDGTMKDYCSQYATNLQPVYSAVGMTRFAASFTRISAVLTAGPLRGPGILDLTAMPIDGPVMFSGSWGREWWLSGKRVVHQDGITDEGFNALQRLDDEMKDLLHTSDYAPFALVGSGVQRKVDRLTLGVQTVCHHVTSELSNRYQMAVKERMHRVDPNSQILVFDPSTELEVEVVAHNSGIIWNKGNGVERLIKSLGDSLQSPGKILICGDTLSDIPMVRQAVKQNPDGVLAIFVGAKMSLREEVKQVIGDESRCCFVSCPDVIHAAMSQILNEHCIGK

[2] = biological target: T2, B. malayi T6PP (trehalose-6-phosphate phosphatase), wild type (Brugia malayi, UniProt A8NS89, N228A); test: biochemical
T2 construct: gene Bm1_08695
Excerpt: (§1) steady-state inhibition kinetics, EnzChek phosphate assay on B. malayi T6PP (trehalose-6-phosphate phosphatase), wild type

[3] = biological target: T3, B. malayi T6PP (trehalose-6-phosphate phosphatase), wild type (Brugia malayi, UniProt A8NS89, Y221A); test: biochemical
T3 construct: gene Bm1_08695
Excerpt: as §1

[4] = biological target: T4, B. malayi T6PP (trehalose-6-phosphate phosphatase), wild type (Brugia malayi, UniProt A8NS89, Y225A); test: biochemical
T4 construct: gene Bm1_08695
Excerpt: as §1

[5] = biological target: T5, B. malayi T6PP (trehalose-6-phosphate phosphatase), wild type (Brugia malayi, UniProt A8NS89, E384A); test: biochemical
T5 construct: gene Bm1_08695
Excerpt: as §1

[6] = biological target: T6, B. malayi T6PP (trehalose-6-phosphate phosphatase), wild type (Brugia malayi, UniProt A8NS89, Q332A); test: biochemical
T6 construct: gene Bm1_08695
Excerpt: as §1

[7] = biological target: T7, B. malayi T6PP (trehalose-6-phosphate phosphatase), wild type (Brugia malayi, UniProt A8NS89, D378A); test: biochemical
T7 construct: gene Bm1_08695
Excerpt: as §1

[8] = biological target: T8, B. malayi T6PP (trehalose-6-phosphate phosphatase), wild type (Brugia malayi, UniProt A8NS89, K334A); test: biochemical
T8 construct: gene Bm1_08695
Excerpt: as §1

[9] = biological target: T9, B. malayi T6PP (trehalose-6-phosphate phosphatase), wild type (Brugia malayi, UniProt A8NS89, S329A); test: biochemical
T9 construct: gene Bm1_08695
Excerpt: as §1

[10] = biological target: T10, B. malayi T6PP (trehalose-6-phosphate phosphatase), wild type (Brugia malayi, UniProt A8NS89, W280A); test: biochemical
T10 construct: gene Bm1_08695
Excerpt: as §1

[11] = biological target: T11, B. malayi T6PP (trehalose-6-phosphate phosphatase), wild type (Brugia malayi, UniProt A8NS89, R337A); test: biochemical
T11 construct: gene Bm1_08695
Excerpt: as §1

[12] = biological target: T1, B. malayi T6PP (trehalose-6-phosphate phosphatase), wild type; test: steady-state inhibition kinetics, EnzChek phosphate assay; type: biochemical; conditions: read-out: KI, trehalose 6-sulfate
[13] = test system: O=P(O)(O)OC[C@H]1O[C@H](O[C@H]2O[C@H](CO)[C@@H](O)[C@H](O)[C@H]2O)[C@H](O)[C@@H](O)[C@@H]1O; test: steady-state kinetics, EnzChek phosphate assay; type: biochemical, Brugia malayi; conditions: 25 mM Tris pH 7.5, 50 mM NaCl, 5 mM MgCl2
Excerpt: steady-state kinetics, EnzChek phosphate assay on T6PP-Δ59

[14] = substrate: O=P(O)(O)OC[C@H]1O[C@H](O[C@H]2O[C@H](CO)[C@@H](O)[C@H](O)[C@H]2O)[C@H](O)[C@@H](O)[C@@H]1O; test: steady-state kinetics, EnzChek phosphate assay; type: biochemical, Brugia malayi; conditions: 25 mM Tris pH 7.5, 50 mM NaCl, 5 mM MgCl2; remark: listed apart in the source
Excerpt: steady-state kinetics, EnzChek phosphate assay on B. malayi T6PP (trehalose-6-phosphate phosphatase), wild type

O=P(O)(O)OC[C@H]1OC(O)[C@H](O)[C@@H](O)[C@@H]1O (stereo partly shown) [glucose 6-phosphate]
Ki ([1]; no inhibition, substrate trehalose 6-phosphate): > 10000 µM

O=S(=O)(O)OC[C@H]1O[C@H](O[C@H]2O[C@H](CO)[C@@H](O)[C@H](O)[C@H]2O)[C@H](O)[C@@H](O)[C@@H]1O [trehalose 6-sulfate]
Ki [2]: 16 ± 2 µM | Ki [3]: 1300 µM | Ki [4]: 400 ± 40 µM | Ki [5]: 200 ± 30 µM | Ki [6]: 1000 µM | Ki [7]: 320 ± 30 µM | Ki [8]: 150 ± 20 µM | Ki [9]: 240 ± 30 µM | Ki [10]: 270 ± 50 µM | Ki [11]: 700 ± 100 µM | Ki [12]: 82 ± 7 µM

OC[C@H]1O[C@H](O[C@H]2O[C@H](CO)[C@@H](O)[C@H](O)[C@H]2O)[C@H](O)[C@@H](O)[C@@H]1O [trehalose]
Ki [1]: > 10000 µM

T6PP-Δ59 (Brugia malayi)
Km [13]: 260 ± 20 µM | kcat [13]: 28 ± 1 s⁻¹ | kcat/Km [13]: 110000 M⁻¹ s⁻¹

B1: B. malayi T6PP (trehalose-6-phosphate phosphatase), wild type (Brugia malayi) (protein)
chain: T1 sequence (A8NS89 1-492)
notes: full-length (492 residues) from cDNA library, modified pET-15b(TEV), E. coli T7 Express; N-terminal His-tag removed by TEV protease
Km [14]: 360 ± 60 µM | kcat [14]: 24 ± 2 s⁻¹ | kcat/Km [14]: 69000 M⁻¹ s⁻¹
